PubChem BioAssay AID248 (DTP/NCI, 2004)
Several values for one entry are separate records, joined by “and”; a condition that tells them apart may be missing. Equal entries are not always repeated. Toxic doses and inconclusive results are not listed.

System: L1210 leukemia ip in BDF1 mice, survival T/C
Test: NCI In Vivo Anticancer Drug Screen. Data for tumor model L1210 Leukemia (intraperitoneal) in B6D2F1 (BDF1) mice
Details: endpoint: mean survival time, higher = longer survival
Procedure, shortened: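 Ratio derived from survival: compound-dosed mice over vehicle-dosed mice, all bearing a transplantable tumor.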

[1] = dose: 50.0 mg/kg/injection, schedule: Q01DX009 (ip), vehicle: saline with Tween-80
[2] = dose: 100.0 mg/kg/injection, schedule: Q01DX009 (ip), vehicle: saline with Tween-80
[3] = dose: 100.0 mg/kg/injection, schedule: Q04DX003 (ip), vehicle: saline with Tween-80
[4] = dose: 200.0 mg/kg/injection, schedule: Q04DX003 (ip), vehicle: saline with Tween-80
[5] = dose: 400.0 mg/kg/injection, schedule: Q04DX003 (ip), vehicle: saline with Tween-80
[6] = dose: 50.0 mg/kg/injection, schedule: Q01DX001 (ip), vehicle: carboxymethylcellulose (CMC)
[7] = dose: 100.0 mg/kg/injection, schedule: Q01DX001 (ip), vehicle: carboxymethylcellulose (CMC)
[8] = dose: 200.0 mg/kg/injection, schedule: Q01DX001 (ip), vehicle: carboxymethylcellulose (CMC)
[9] = dose: 100.0 mg/kg/injection, schedule: Q01DX001 (ip), vehicle: saline with Tween-80
[10] = dose: 100.0 mg/kg/injection, schedule: Q04DX002 (ip), vehicle: saline with Tween-80
[11] = dose: 200.0 mg/kg/injection, schedule: Q01DX001 (ip), vehicle: saline with Tween-80
[12] = dose: 400.0 mg/kg/injection, schedule: Q01DX001 (ip), vehicle: saline with Tween-80

N=C([Se])c1cn(C2OC(CO)C(O)C2O)c2ncnc(N)c12 (centres undefined)
T/C (dose: 0.09 mg/kg/injection, schedule: Q01DX009 (ip), vehicle: saline): 109 % of control | T/C (dose: 0.19 mg/kg/injection, schedule: Q01DX005 (ip), vehicle: saline): 119 % of control | T/C (dose: 0.19 mg/kg/injection, schedule: Q01DX009 (ip), vehicle: saline): 108 % of control | T/C (dose: 0.39 mg/kg/injection, schedule: Q01DX005 (ip), vehicle: saline): 117 % of control | T/C (dose: 0.39 mg/kg/injection, schedule: Q01DX009 (ip), vehicle: saline): 104 % of control | T/C (dose: 0.78 mg/kg/injection, schedule: Q01DX005 (ip), vehicle: saline): 106 % of control

COc1cc2c(cc1OC)CN1CCc3cc(OC)c(OC)cc3C1C2 (centres undefined)
T/C [1]: 93 % of control | T/C (dose: 75.0 mg/kg/injection, schedule: Q01DX001 (ip), vehicle: saline): 100 % of control | T/C [2]: 93 % of control | T/C (dose: 150.0 mg/kg/injection, schedule: Q01DX001 (ip), vehicle: saline): 100 % of control | T/C (dose: 200.0 mg/kg/injection, schedule: Q01DX009 (ip), vehicle: saline with Tween-80): 93 % of control | T/C (dose: 300.0 mg/kg/injection, schedule: Q01DX001 (ip), vehicle: saline): 101 % of control

CSc1nc(N)c(C(N)=O)cc1C#N
T/C [3]: 89 % of control | T/C [4]: 89 % of control | T/C [5]: 87 % of control

O=C1c2ccccc2C(=O)N1O
T/C [6]: 95 % of control | T/C [7]: 90 % of control | T/C [8]: 95 % of control

CCCCCCCC(=O)Nc1ccc(C)cc1
T/C (dose: 50.0 mg/kg/injection, schedule: Q01DX009 (ip), vehicle: Klucel (hydroxypropylcellulose) (HPC)): 97 % of control | T/C (dose: 100.0 mg/kg/injection, schedule: Q01DX009 (ip), vehicle: Klucel (hydroxypropylcellulose) (HPC)): 95 % of control | T/C (dose: 100.0 mg/kg/injection, schedule: Q04DX003 (ip), vehicle: Klucel (hydroxypropylcellulose) (HPC)): 99 % of control | T/C (dose: 200.0 mg/kg/injection, schedule: Q01DX009 (ip), vehicle: Klucel (hydroxypropylcellulose) (HPC)): 98 % of control | T/C (dose: 200.0 mg/kg/injection, schedule: Q04DX003 (ip), vehicle: Klucel (hydroxypropylcellulose) (HPC)): 98 % of control

Cc1cc(C)c(NC(=O)c2cc(C(=O)O)c(C(=O)Nc3c(C)cc(C)cc3C)cc2C(=O)O)c(C)c1
T/C [1]: 119 % of control and 91 % of control | T/C [9]: 104 % of control | T/C [10]: 104 % of control and 110 % of control | T/C [3]: 107 % of control | T/C [11]: 98 % of control | T/C (dose: 200.0 mg/kg/injection, schedule: Q04DX002 (ip), vehicle: saline with Tween-80): 94 % of control and 113 % of control | T/C [4]: 100 % of control | T/C [12]: 102 % of control | T/C (dose: 400.0 mg/kg/injection, schedule: Q01DX009 (ip), vehicle: saline with Tween-80): 87 % of control and 89 % of control | T/C (dose: 400.0 mg/kg/injection, schedule: Q04DX002 (ip), vehicle: saline with Tween-80): 100 % of control | T/C [5]: 96 % of control

O=C1C(Cl)=CC(=NS(=O)(=O)c2ccccc2)C=C1Cl
T/C (dose: 6.25 mg/kg/injection, schedule: Q01DX009 (ip), vehicle: saline with Tween-80): 96 % of control | T/C (dose: 12.5 mg/kg/injection, schedule: Q01DX009 (ip), vehicle: saline with Tween-80): 96 % of control

CCOP(=O)(CSc1ccccc1)OCC
T/C (dose: 25.0 mg/kg/injection, schedule: Q01DX009 (ip), vehicle: saline with Tween-80): 93 % of control | T/C (dose: 25.0 mg/kg/injection, schedule: Q04DX002 (ip), vehicle: saline with Tween-80): 107 % of control | T/C [1]: 100 % of control | T/C (dose: 50.0 mg/kg/injection, schedule: Q04DX002 (ip), vehicle: saline with Tween-80): 107 % of control | T/C [10]: 86 % of control

COc1cc([N+](=O)[O-])ccc1NC(=O)c1ccccc1
T/C [7]: 99 % of control | T/C [8]: 101 % of control | T/C (dose: 400.0 mg/kg/injection, schedule: Q01DX001 (ip), vehicle: carboxymethylcellulose (CMC)): 97 % of control

COc1cc(CC(=O)C(=O)O)oc(=O)c1
T/C [3]: 102 % of control | T/C [4]: 95 % of control | T/C [5]: 98 % of control

O=C(CS(=O)(=O)O)Nc1ccccc1
T/C [9]: 94 % of control | T/C [11]: 97 % of control | T/C [12]: 100 % of control

BrC1=C(Br)CCCC1
T/C (dose: 100.0 mg/kg/injection, schedule: Q04DX003 (ip), vehicle: saline): 91 % of control | T/C (dose: 200.0 mg/kg/injection, schedule: Q04DX003 (ip), vehicle: saline): 91 % of control | T/C (dose: 400.0 mg/kg/injection, schedule: Q04DX003 (ip), vehicle: saline): 93 % of control

O=C1CC(c2ccc(OCN(CCCl)CCCl)cc2)CC(=O)C1CN(CCCl)CCCl (centres undefined)
T/C (dose: 0.2 mg/kg/injection, schedule: Q01DX009 (ip), vehicle: carboxymethylcellulose (CMC)): 95 % of control | T/C (dose: 0.37 mg/kg/injection, schedule: Q01DX009 (ip), vehicle: saline): 122 % of control | T/C (dose: 0.39 mg/kg/injection, schedule: Q01DX009 (ip), vehicle: carboxymethylcellulose (CMC)): 102 % of control | T/C (dose: 0.5 mg/kg/injection, schedule: Q01DX009 (ip), vehicle: carboxymethylcellulose (CMC)): 101 % of control | T/C (dose: 0.9 mg/kg/injection, schedule: Q01DX009 (ip), vehicle: carboxymethylcellulose (CMC)): 107 % of control | T/C (dose: 1.0 mg/kg/injection, schedule: Q01DX009 (ip), vehicle: carboxymethylcellulose (CMC)): 104 % of control | T/C (dose: 1.4 mg/kg/injection, schedule: Q01DX009 (ip), vehicle: carboxymethylcellulose (CMC)): 87 % of control | T/C (dose: 2.0 mg/kg/injection, schedule: Q01DX001 (ip), vehicle: saline): 193 % of control | T/C (dose: 2.0 mg/kg/injection, schedule: Q01DX009 (ip), vehicle: carboxymethylcellulose (CMC)): 114 % of control | T/C (dose: 3.0 mg/kg/injection, schedule: Q01DX009 (ip), vehicle: saline): 106 % of control and 90 % of control | T/C (dose: 4.0 mg/kg/injection, schedule: Q01DX001 (ip), vehicle: saline): 104 % of control and 109 % of control | T/C (dose: 6.0 mg/kg/injection, schedule: Q04DX003 (ip), vehicle: saline): 123 % of control | T/C (dose: 6.6 mg/kg/injection, schedule: Q01DX009 (ip), vehicle: carboxymethylcellulose (CMC)): 157 % of control | T/C (dose: 7.5 mg/kg/injection, schedule: Q01DX001 (ip), vehicle: saline): 122 % of control | T/C (dose: 8.58 mg/kg/injection, schedule: Q01DX001 (ip), vehicle: carboxymethylcellulose (CMC)): 124 % of control | T/C (dose: 10.0 mg/kg/injection, schedule: Q01DX009 (ip), vehicle: carboxymethylcellulose (CMC)): 93 % of control | T/C (dose: 13.0 mg/kg/injection, schedule: Q01DX001 (ip), vehicle: carboxymethylcellulose (CMC)): 114 % of control | T/C (dose: 19.5 mg/kg/injection, schedule: Q01DX001 (ip), vehicle: carboxymethylcellulose (CMC)): 118 % of control | T/C (dose: 0.1 micrograms/kg/injection, schedule: Q01DX001 (ip), vehicle: saline): 100 % of control | T/C (dose: 0.2 micrograms/kg/injection, schedule: Q01DX001 (ip), vehicle: saline): 102 % of control | T/C (dose: 0.5 micrograms/kg/injection, schedule: Q01DX001 (ip), vehicle: saline): 100 % of control | T/C (dose: 1.0 micrograms/kg/injection, schedule: Q01DX001 (ip), vehicle: saline): 100 % of control

CC(C)=CCC1=C(Cl)C(=O)c2ccccc2C1=O
T/C (dose: 100.0 mg/kg/injection, schedule: Q01DX001 (ip), vehicle: Klucel (hydroxypropylcellulose) (HPC)): 96 % of control | T/C (dose: 200.0 mg/kg/injection, schedule: Q01DX001 (ip), vehicle: Klucel (hydroxypropylcellulose) (HPC)): 104 % of control | T/C (dose: 400.0 mg/kg/injection, schedule: Q01DX001 (ip), vehicle: Klucel (hydroxypropylcellulose) (HPC)): 101 % of control

Cc1cccc(/C=N\NC(=O)CCCC(=O)N/N=C/c2cccc(C)n2)n1
T/C [6]: 88 % of control | T/C [7]: 90 % of control

Cc1ccc(Nc2ccc(O)c3c2C(=O)c2ccccc2C3=O)c(Br)c1
T/C (dose: 75.0 mg/kg/injection, schedule: Q01DX001 (ip), vehicle: steriod suspending solution): 96 % of control | T/C (dose: 150.0 mg/kg/injection, schedule: Q01DX001 (ip), vehicle: steriod suspending solution): 100 % of control | T/C (dose: 300.0 mg/kg/injection, schedule: Q01DX001 (ip), vehicle: steriod suspending solution): 93 % of control

Cc1ccc2nc(/C=C/c3ccc(N(C)C)cc3)cc(C)c2c1
T/C (dose: 25.0 mg/kg/injection, schedule: Q01DX Z (ip), vehicle: carboxymethylcellulose (CMC)): 89 % of control | T/C (dose: 100.0 mg/kg/injection, schedule: Q01DX Z (ip), vehicle: carboxymethylcellulose (CMC)): 96 % of control | T/C (dose: 200.0 mg/kg/injection, schedule: Q01DX Z (ip), vehicle: carboxymethylcellulose (CMC)): 100 % of control

Clc1ccc(-c2cc(=[N+]3CCCCC3)ss2)cc1
T/C [2]: 100 % of control | T/C [3]: 104 % of control | T/C [4]: 94 % of control
